The text below walks through data of publication PMC4697807, “Novel Zn^2+ Modulated GPR39 Receptor Agonists Do Not Drive Acute Insulin Secretion in Rodents” (PLoS ONE, 2015).

Like-named read-outs stand apart in the source and are kept apart here.

Experiment [1] deals with T1, mGPR39 (Mus musculus, UniProt Q5U431).
T1 construct: Full length human (AF034633), rat (DM091294) and mouse (BC085285) GPR39; expressed in transfected cells; host or cells: HEK293s (ATCC CRL-1573), pIRESneo3 vector, selected clones
T1 sequence (Q5U431 1-456): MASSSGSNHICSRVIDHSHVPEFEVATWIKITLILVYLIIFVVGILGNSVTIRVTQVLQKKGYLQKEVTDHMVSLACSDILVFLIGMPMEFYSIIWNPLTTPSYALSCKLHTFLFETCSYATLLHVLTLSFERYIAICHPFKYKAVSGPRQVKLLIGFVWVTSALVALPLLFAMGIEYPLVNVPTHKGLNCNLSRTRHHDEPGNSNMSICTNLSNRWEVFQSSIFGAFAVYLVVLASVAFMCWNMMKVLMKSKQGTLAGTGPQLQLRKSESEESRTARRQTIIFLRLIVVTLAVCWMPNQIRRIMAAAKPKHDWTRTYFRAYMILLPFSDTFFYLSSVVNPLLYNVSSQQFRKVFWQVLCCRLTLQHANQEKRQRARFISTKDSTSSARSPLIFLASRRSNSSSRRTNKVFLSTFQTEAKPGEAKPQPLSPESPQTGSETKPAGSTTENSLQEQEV
Briefly: DMR label-free assay, HEK293s cells transfected with mouse GPR39. In kind it is cell-based. The note with it: for Efficacy at 33 μM: AZ1395 100% reference. An excerpt:
(§1) Full length human (AF034633), rat (DM091294) and mouse (BC085285) GPR39 (GeneArt–Life Technologies, Carlsbad, CA) were subcloned into the pIRESneo3 vector (Clontech, Mountain View, CA). The resulting expression vectors hGPR39-, rGPR39- and mGPR39-pIRESneo3 were transfected into HEK293s cells (ATCC CRL-1573) using Lipofectamine 2000 (Life Technologies). Individual clones were isolated using flow cytometry with a FACSVantage SE DIVA (Becton Dickinson, Franklin Lakes, NJ) and clones were chosen based on responses to Zn^2+ measured in a cAMP assay (see below). […] HEK293s-derived cell lines were cultured at 37°C, 10% CO2 and 95% humidity in DMEM supplemented with 10% FBS and 600 μg/ml Geneticin (Life Technologies). The mouse pancreas epithelial cell line NIT-1 (ATCC CRL-2055) with endogenous expression of GPR39 was cultured at 37°C, 5% CO2, and 95% humidity in Ham´s F12 (Life Technologies) supplemented with 10% FBS.
(§2) DMR assays were performed using an Epic instrument (Corning Inc., Corning, NY). 12,000 cells per well were cultured for 24 h in 384-well fibronectin-coated Epic biosensor plates (Corning). On the day of experiment, culture medium was removed and replaced with 30 μl buffer A (HBSS, HEPES 20 mM pH7.4, 1% DMSO, 0.01% BSA) using an EL406 (Bio-Tek). Plates were incubated at 26 °C for 1 h inside the Epic to allow for temperature equilibration. A baseline was read for 2 min, and then 15 μl compounds in buffer A were added using a CyBi-Well vario (CyBio) and DMR was detected during 45 min.
(§3) Concentration response data were fitted with a four parameter logistic fit using Eq 1, y=A+((B−A)/1+((C/x)^D))) (1) where A is no activation, B is full activation, C is the EC50 and D is the Hill slope.

A short description of experiment [2]: Isothermal titration calorimetry (ITC) of compound with ZnCl2. To be noted: ITC at 30°C; single site binding model; ± SD; read-out: K D (Zn^2+-interaction). As to the method:
To determine the binding affinities of the discussed compounds for Zn^2+, isothermal titration calorimetry experiments were conducted on a MicroCal ITC-200 system (Malvern Instruments) at a temperature of 30°C. The compounds, provided as a DMSO stock solution of 10 mM, were diluted in 50 mM HEPES (pH 7.4) and 150 mM NaCl to reach a final nominal concentration of 400 μM (= 4% (v/v) final DMSO concentration). Complete titration of the compounds was typically achieved by injecting 27 x 1.3 μl aliquots of 5 mM ZnCl2 provided in a matching buffer. The thermodynamic binding parameters were extracted by non-linear regression analysis of the binding isotherms (Microcal Origin version 7.0 software package). A single site binding model was applied, yielding binding enthalpy (ΔH), stoichiometry (n), entropy (ΔS), and association constant (Ka). All experiments have been performed in triplicate to allow for error estimations.
On the technique in general: In ITC the heat of successive injections is recorded.

Experiment [3] deals with T2, GPR39 (Homo sapiens, UniProt O43194).
T2 sequence (O43194 1-453): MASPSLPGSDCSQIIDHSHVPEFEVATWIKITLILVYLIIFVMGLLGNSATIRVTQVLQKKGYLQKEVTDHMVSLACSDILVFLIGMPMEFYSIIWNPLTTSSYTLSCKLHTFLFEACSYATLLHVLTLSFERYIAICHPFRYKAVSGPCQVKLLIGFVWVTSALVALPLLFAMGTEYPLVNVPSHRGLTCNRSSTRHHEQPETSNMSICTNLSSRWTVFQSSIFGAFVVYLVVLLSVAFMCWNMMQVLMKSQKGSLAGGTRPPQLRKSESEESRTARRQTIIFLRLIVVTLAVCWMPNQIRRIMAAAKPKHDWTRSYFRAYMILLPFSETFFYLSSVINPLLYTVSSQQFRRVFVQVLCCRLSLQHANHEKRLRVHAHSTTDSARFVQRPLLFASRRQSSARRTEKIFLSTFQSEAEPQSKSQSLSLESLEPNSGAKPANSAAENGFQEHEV
Briefly: Dynamic mass redistribution (DMR) label-free assay, HEK293s-hGPR39 cells. In kind it is cell-based. Also noted: Full length human (AF034633), rat (DM091294) and mouse (BC085285) GPR39; expressed in transfected cells; host or cells: HEK293s (ATCC CRL-1573), pIRESneo3 vector, selected clones. To be noted: for Efficacy at 33 μM: AZ1395 100% reference.
Text: as §1, §2, §3

[4] abbreviates: absence (w/o) of Zn^2+, read-out: EC50.
Setting [5] is: absence (w/o) of Zn^2+, read-out: pEC50 ± SD (converted).
Where [6] appears, read: presence of 5 μM Zn^2+, read-out: pEC50 ± SD (converted).
Setting [7] is: presence of 5 μM Zn^2+, read-out: EC50.

As to `N#Cc1ccc(OCCn2ccnc2)c(OCCn2ccnc2)c1` [AZ1395, 3,4-bis-(2-imidazol-1-ylethoxy)-benzonitrile], the EC50 was 10000 nM in experiment [1] (setting [4]); 10500 nM in experiment [1] (setting [5]); 166 nM in experiment [1] (setting [6]); 2290 nM in experiment [3] (setting [5]); 36 nM in experiment [3] (setting [7]); 35.5 nM in experiment [3] (setting [6]). Besides, the Kd in experiment [2] is 52100 ± 9100 nM.

For `Cc1nc2c(C(=O)O)cnn2c(O)c1Cc1ccc(Cl)cc1` [AZ4237, 6-[(4-chlorophenyl)methyl]-7-hydroxy-5-methyl-pyrazolo[1,5-a]pyrimidine-3-carboxylic acid], the “Efficacy at 33 μM” value in experiment [1] (absence (w/o) of Zn^2+) turned out to be 12%; in experiment [3] (absence (w/o) of Zn^2+), 20%. Moreover, the EC50 was more than 33000 nM in experiment [1] (setting [4]); 450 nM in experiment [1] (setting [7]); 457 nM in experiment [1] (setting [6]); more than 33000 nM in experiment [3] (setting [4]); 191 nM in experiment [3] (setting [6]). In addition, in experiment [2], the Kd is 8720 ± 1060 nM.

Consider `Cc1nc(-c2nc3c(c(=O)[nH]2)CN(C(=O)c2cccc(Cl)c2F)CC3)cs1` [AZ7914, 6-(3-chloro-2-fluoro-benzoyl)-2-(2-methylthiazol-4-yl)-3,5,7,8-tetrahydropyrido-[4,3-d]pyrimidin-4-one], for which the “Efficacy at 33 μM” value in experiment [1] (absence (w/o) of Zn^2+) is listed as 42%; in experiment [3] (absence (w/o) of Zn^2+), 39%. In addition, the EC50 is more than 33000 nM in experiment [1] (setting [4]), 316 nM in experiment [1] (setting [6]), more than 33000 nM in experiment [3] (setting [4]) and 102 nM in experiment [3] (setting [6]). In addition, the Kd in experiment [2] turned out to be 30600 ± 19100 nM.

Regarding `[Zn+2]` [Zn^2+], in experiment [3] (Zn^2+ by itself), the “Emax relative to the 100% efficacy reference AZ1395” value is on record as approximately 35% and the “pEC50 ± SD” value is “(4.87 ± 0.05)”. Besides, the EC50 in experiment [3] (Zn^2+ by itself, read-out: EC50) stood at 13000 nM.
